Results published in patent publication US10821115B2, “Compounds that inhibit Mcl-1 protein” (priority 2017, dated 2020).
Like-named read-outs stand apart in the source and are kept apart here.

Columns and labels:
[1] = target: recombinant human Mcl-1 (residues 171-327) / Bim interaction (Homo sapiens (Human), UniProt Q07820); assay: biochemical; type: binding; conditions: read-out: Mcl-1 HTRF IC50
[2] = tested on: human multiple myeloma cell line, OPM-2; assay: Cell viability assay (OPM-2 10 FBS), CellTiter-Glo; type: cell-based
In short: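 Steps: plate cells at 3000/well in 10% FBS growth medium, add serially diluted compound, incubate 16 h at 37 °C with 5% CO2, add detection reagent and read luminescence after 25 min. A 4-parameter logistic model gives IC50.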

[3] = TR-FRET, Mcl-1(171-327) / biotin-Bim (51-76)
[4] = Homo sapiens, OPM-2, 16 h, read-out: OPM-2 10% FBS IC50 IP, OPM-2 cells, 10% FBS, 16 h, CellTiter-Glo
[5] = read-out: OPM-2 10% FBS IC50 IP, OPM-2 cells, 10% FBS, 16 h, CellTiter-Glo
[6] = 0.1 nM Mcl-1(171-327), 0.05 nM biotin-Bim (51-76)
[7] = read-out: OPM-2 10% FBS IC50 IP, OPM-2 cells, 10% FBS, 16 h incubation
[8] = Homo sapiens, OPM-2, 16 h, read-out: OPM-2 10% FBS IC50 IP, OPM-2 cells, 10% FBS, 16 h incubation

recombinant human Mcl-1 (residues 171-327) / Bim interaction, sequence (Q07820 171-327): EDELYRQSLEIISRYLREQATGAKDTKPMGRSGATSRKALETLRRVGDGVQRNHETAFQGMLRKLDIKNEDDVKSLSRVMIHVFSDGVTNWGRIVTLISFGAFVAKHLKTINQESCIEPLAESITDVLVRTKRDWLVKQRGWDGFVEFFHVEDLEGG

## C[C@@H]1[C@@H](C)CCC[C@](O)(CC(=O)N2CCN(C)CC2)[C@@H]2CC[C@H]2CN2C[C@@]3(CCCc4cc(Cl)ccc43)COc3ccc(cc32)C(=O)NS1(=O)=O (single isomer, unassigned) [Example 100168]
[1]; [3]
  IC50: 0.249 nM
[2]; [4]
  IC50: 196 nM

## C[C@@H]1[C@@H](C)CCC[C@@](O)(CC(=O)N2CCOC2=O)[C@@H]2CC[C@H]2CN2C[C@@]3(CCCc4cc(Cl)ccc43)COc3ccc(cc32)C(=O)NS1(=O)=O (stereo in doubt) [Example 100154, (1S,3′R,6′R,7′R,11′S,12′R)-6-chloro-7′-hydroxy-11′,12′-dimethyl-7′-(2-oxo-2-(2-oxo-1,3-oxazolidin-3-yl)ethyl)-3,4-dihydro-2H,15′H-spiro[naphthalene-1,22′-[20]oxa[13]thia[1,14]diazatetracyclo [14.7.2.0~3,6~.0~19,24~]pentacosa[16,18,24]rien]-15′-one 13′,13′-dioxide]
[1]; [3]
  IC50: 1.72 nM
[2]; [5]
  IC50: 1070 nM

## CO[C@@]1(CN2CCCN(C(C)C)CC2)/C=C/C[C@H](C)[C@@H](C)S(=O)(=O)NC(=O)c2ccc3c(c2)N(C[C@@H]2CC[C@H]21)C[C@@]1(CCCc2cc(Cl)ccc21)CO3 [Example 331]
[1]; [6]
  IC50: 0.184 nM
[2]; [7]
  IC50: 230 nM

## C[C@@H]1[C@@H](C)CCC[C@]2(CCO2)[C@@H]2CC[C@H]2CN2C[C@@]3(CCCc4cc(Cl)ccc43)COc3ccc(cc32)C(=O)NS1(=O)=O (single isomer, unassigned) [Example 100229]
[1]; [3]
  IC50: 0.356 nM
[2]; [4]
  IC50: 1490 nM

## COCCOC[C@@]1(O)/C=C/C[C@H](C)[C@@H](C)S(=O)(=O)NC(=O)c2ccc3c(c2)N(C[C@@H]2CC[C@H]21)C[C@@]1(CCCc2cc(Cl)ccc21)CO3 [Example 100445, (1S,3′R,6′R,7′R,8′E,11′S,12′R)-6-chloro-7′-hydroxy-7′-((2-methoxyethoxy)methyl)-11′,12′-dimethyl-3,4-dihydro-2H,15′H-spiro[naphthalene-1,22′-[20]oxa[13]thia[1,14]diazatetracyclo [14.7.2.0~3,6~.0~19,24~]pentacosa[8,16,18,24]tetraen]-15′-one 13′,13′-dioxide]
[1]; [3]
  IC50: 0.04 nM
[2]; [4]
  IC50: 98 nM

## C[C@@H]1[C@@H](C)C/C=C/[C@@](O)(CC(=O)OCC2(C)COC2)[C@@H]2CC[C@H]2CN2C[C@@]3(CCCc4cc(Cl)ccc43)COc3ccc(cc32)C(=O)NS1(=O)=O [Example 100299, (3-methyl-3-oxetanyl)methyl ((1S,3′R,6′R,7′S,8′E,11′S,12′R)-6-chloro-7′-hydroxy-11′,12′-dimethyl-13′,13′-dioxido-15′-oxo-3,4-dihydro-2H-spiro[naphthalene-1,22′-[20]oxa[13]thia[1,14]diazatetracyclo [14.7.2.0~3,6~.0~19,24~]pentacosa[8,16,18,24]tetraen]-7′-yl)acetate]
[1]; [3]
  IC50: 0.35 nM
[2]; [4]
  IC50: 623 nM

## COCCN(C)C1CN(C[C@@]2(OC)/C=C/C[C@H](C)[C@@H](C)S(=O)(=O)NC(=O)c3ccc4c(c3)N(C[C@@H]3CC[C@H]32)C[C@@]2(CCCc3cc(Cl)ccc32)CO4)C1 [Example 94, (1S,3′R,6′R,7′R,8′E,11′S,12′R)-6-chloro-7′-methoxy-7′-((3-((2-methoxyethyl)(methyl)amino)-1-azetidinyl)methyl)-11′,12′-dimethyl-3,4-dihydro-2H,15′H-spiro[naphthalene-1,22′-[20]oxa[13]thia[1,14]diazatetracyclo [14.7.2.0~3,6~.0~19,24~]pentacosa[8,16,18,24]tetraen]-15′-one 13′,13′-dioxide]
[1]; [6]
  IC50: 0.191 nM
[2]; [8]
  IC50: 140 nM

## CO[C@@]1(CN2CCN3CC[C@H](F)C[C@@H]3C2)/C=C/C[C@H](C)[C@@H](C)S(=O)(=O)NC(=O)c2ccc3c(c2)N(C[C@@H]2CC[C@H]21)C[C@@]1(CCCc2cc(Cl)ccc21)CO3 [Example 274]
[1]; [6]
  IC50: 0.285 nM
[2]; [7]
  IC50: 232 nM

## CO[C@@]1(CN2CCN3C[C@H](C)OC[C@@H]3C2)/C=C/C[C@H](C)[C@@H](C)S(=O)(=O)NC(=O)c2ccc3c(c2)N(C[C@@H]2CC[C@H]21)C[C@@]1(CCCc2cc(Cl)ccc21)CO3 [Example 145, (1S,3′R,6′R,7′S,8′E,11′S,12′R)-6-chloro-7′-methoxy-11′,12′-dimethyl-7′-(((3S,9aS)-3-methylhexahydropyrazino[2,1-c][1,4]oxazin-8(1H)-yl)methyl)-3,4-dihydro-2H,15′H-spiro[naphthalene-1,22′-[20]oxa[13]thia[1,14]diazatetracyclo [14.7.2.0~3,6~.0~19,24~]pentacosa[8,16,18,24]tetraen]-15′-one 13′,13′-dioxide]
[1]; [6]
  IC50: 0.124 nM
[2]; [8]
  IC50: 113 nM

## COCC[C@@H]1[C@@H](C)C/C=C/[C@](CN2CCN3CCOC[C@@H]3C2)(OC)[C@@H]2CC[C@H]2CN2C[C@@]3(CCCc4cc(Cl)ccc43)COc3ccc(cc32)C(=O)NS1(=O)=O [Example 179, (1S,3′R,6′R,7′S,8′E,11′S,12′R)-6-chloro-7′-((9aS)-hexahydropyrazino[2,1-c][1,4]oxazin-8(1H)-ylmethyl)-7′-methoxy-12′-(2-methoxyethyl)-11′-methyl-3,4-dihydro-2H,15′H-spiro[naphthalene-1,22′-[20]oxa[13]thia[1,14]diazatetracyclo [14.7.2.0~3,6~.0~19,24~]pentacosa[8,16,18,24]tetraen]-15′-one 13′,13′-dioxide]
[1]; [6]
  IC50: 0.072 nM
[2]; [8]
  IC50: 36 nM

## COC[C@]1(OC)CCC[C@H](C)[C@@H](C)S(=O)(=O)NC(=O)c2ccc3c(c2)N(C[C@@H]2CC[C@H]21)C[C@@]1(CCCc2cc(Cl)ccc21)CO3 [Example 100189, (1S,3′R,6′R,7′S,11′S,12′R)-6-chloro-7′-methoxy-7′-(methoxymethyl)-11′,12′-dimethyl-3,4-dihydro-2H,15′H-spiro[naphthalene-1,22′-[20]oxa[13]thia[1,14]diazatetracyclo [14.7.2.0~3,6~.0~19,24~]pentacosa[16,18,24]trien]-15′-one 13′,13′-dioxide]
[1]; [3]
  IC50: 0.82 nM
[2]; [4]
  IC50: 701 nM

## C[C@@H]1[C@@H](C)CCC[C@](O)([C@@H](C)C(=O)N(C)C)[C@@H]2CC[C@H]2CN2C[C@@]3(CCCc4cc(Cl)ccc43)COc3ccc(cc32)C(=O)NS1(=O)=O (single isomer, unassigned) [Example 100118]
[1]; [3]
  IC50: 4.44 nM
[2]; [5]
  IC50: 3950 nM

## CNC(=O)C[C@@]1(O)CCC[C@H](C)[C@@H](C)S(=O)(=O)NC(=O)c2ccc3c(c2)N(C[C@@H]2CC[C@H]21)C[C@@]1(CCCc2cc(Cl)ccc21)CO3 (single isomer, unassigned) [Example 100103]
[1]; [3]
  IC50: 0.325 nM
[2]; [4]
  IC50: 778 nM

## COc1ncccc1[C@@]1(O)/C=C/C[C@H](C)[C@@H](C)S(=O)(=O)NC(=O)c2ccc3c(c2)N(C[C@@H]2CC[C@H]21)C[C@@]1(CCCc2cc(Cl)ccc21)CO3 (single isomer, unassigned) [Example 100334]
[1]; [3]
  IC50: 3.27 nM
[2]; [5]
  IC50: 1470 nM

## CCN1CCN(C[C@]2(OC)/C=C/C[C@H](C)[C@@H](C)S(=O)(=O)NC(=O)c3ccc4c(c3)N(C[C@@H]3CC[C@H]32)C[C@@]2(CCCc3cc(Cl)ccc32)CO4)CC1 [Example 247, (1S,3′R,6′R,7′S,8′E,11′S,12′R)-6-chloro-7′-((4-ethyl-1-piperazinyl)methyl)-7′-methoxy-11′,12′-dimethyl-3,4-dihydro-2H,15′H-spiro[naphthalene-1,22′-[20]oxa[13]thia[1,14]diazatetracyclo [14.7.2.0~3,6~.0~19,24~]pentacosa[8,16,18,24]tetraen]-15′-one 13′,13′-dioxide]
[1]; [6]
  IC50: 0.129 nM
[2]; [8]
  IC50: 107 nM

## CO[C@@]1(CN2CCc3nocc3C2)/C=C/C[C@H](C)[C@@H](C)S(=O)(=O)NC(=O)c2ccc3c(c2)N(C[C@@H]2CC[C@H]21)C[C@@]1(CCCc2cc(Cl)ccc21)CO3 [Example 200]
[1]; [6]
  IC50: 0.315 nM
[2]; [8]
  IC50: 583 nM

## C[C@@H]1[C@@H](C)C/C=C/[C@@]2(CCCO2)[C@@H]2CC[C@H]2CN2C[C@@]3(CCCc4cc(Cl)ccc43)COc3ccc(cc32)C(=O)NS1(=O)=O (single isomer, unassigned) [Example 100159]
[1]; [3]
  IC50: 0.559 nM
[2]; [4]
  IC50: 591 nM

## C[C@@H]1CS(=O)(=O)NC(=O)c2ccc3c(c2)N(C[C@@H]2CC[C@H]2[C@](O)(C2SCCCS2)/C=C/[C@@H]1C)C[C@@]1(CCCc2cc(Cl)ccc21)CO3 [Example 100566, (1S,3′R,6′R,7′S,8′E,10′S,11′S)-6-chloro-7′-(1,3-dithian-2-yl)-7′-hydroxy-10′,11′-dimethyl-3,4-dihydro-2H,15′H-spiro[naphthalene-1,22′-[20]oxa[13]thia[1,14]diazatetracyclo [14.7.2.0~3,6~.0~19,24~]pentacosa[8,16,18,24]tetraen]-15′-one 13′,13′-dioxide]
[1]; [3]
  IC50: 0.142 nM
[2]; [4]
  IC50: 590 nM

## C[C@@H]1[C@@H](C)CCC[C@@](O)(CS(=O)(=O)N(C)C(C)(C)C)[C@@H]2CC[C@H]2CN2C[C@@]3(CCCc4cc(Cl)ccc43)COc3ccc(cc32)C(=O)NS1(=O)=O [Example 100170, 1-((1S,3′R,6′R,7′S,11′S,12′R)-6-chloro-7′-hydroxy-11′,12′-dimethyl-13′,13′-dioxido-15′-oxo-3,4-dihydro-2H-spiro[naphthalene-1,22′-[20]oxa[13]thia[1,14]diazatetracyclo [14.7.2.0~3,6~.0~19,24~]pentacosa[16,18,24]trien]-7′-yl)-N-methyl-N-(2-methyl-2-propanyl)methanesulfonamide]
[1]; [3]
  IC50: 12.1 nM
[2]; [5]
  IC50: 7820 nM

## CO[C@@]1(CN2CCN([C@H]3CCOC3)CC2)/C=C/C[C@H](C)[C@@H](C)S(=O)(=O)NC(=O)c2ccc3c(c2)N(C[C@@H]2CC[C@H]21)C[C@@]1(CCCc2cc(Cl)ccc21)CO3 (single isomer, unassigned) [Example 285]
[1]; [6]
  IC50: 0.107 nM
[2]; [7]
  IC50: 62 nM
